The values that follow come from patent US6861561B2, “Substituted aromatic policyclic tertiary-heteroalkylamines useful for inhibiting cholesteryl ester transfer protein activity” (G. D. Searle & Co., priority 1999, dated 2005).

One may read the IC50 as the midpoint of a concentration-inhibition curve.

The experiment has as its target T1, Human recombinant CETP (Homo sapiens, UniProt P11597).
T1 construct: made in house; host or cells: CHO cells (serum-free conditioned medium)
T1 sequence (P11597 18-493): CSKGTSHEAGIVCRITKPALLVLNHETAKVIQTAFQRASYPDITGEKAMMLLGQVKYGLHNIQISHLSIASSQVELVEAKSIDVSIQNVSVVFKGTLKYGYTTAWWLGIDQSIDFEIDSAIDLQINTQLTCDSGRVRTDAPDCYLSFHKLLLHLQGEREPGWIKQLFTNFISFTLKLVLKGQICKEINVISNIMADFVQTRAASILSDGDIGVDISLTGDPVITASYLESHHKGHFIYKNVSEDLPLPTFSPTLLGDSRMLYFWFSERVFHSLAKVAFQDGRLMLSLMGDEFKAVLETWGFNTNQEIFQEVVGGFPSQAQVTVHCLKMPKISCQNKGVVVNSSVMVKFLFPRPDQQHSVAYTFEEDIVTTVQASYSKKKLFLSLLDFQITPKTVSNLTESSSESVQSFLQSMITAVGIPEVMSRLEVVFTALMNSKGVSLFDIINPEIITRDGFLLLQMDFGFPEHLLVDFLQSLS
Put plainly: Assay of CETP Inhibition Using Purified Components (Reconstituted Buffer Assay). Particulars: transfer of [3H]CE from HDL to LDL; 2 hours at 37° C. The class given is biochemical. The protocol:
Assay of CETP Inhibition Using Purified Components (Reconstituted Buffer Assay)
The ability of compounds to inhibit CETP activity was assessed using an in vitro assay that measured the rate of transfer of radiolabeled cholesteryl ester ([^3H]CE) from HDL donor particles to LDL acceptor particles. Details of the assay are provided by Glenn, K. C. et al. (Glenn and Melton, “Quantification of Cholesteryl Ester Transfer Protein (CETP): A) CETP Activity and B) Immunochemical Assay of CETP Protein,” Meth. Enzymol., 263, 339-351 (1996)). Human recombinant CETP can be obtained from the serum-free conditioned medium of CHO cells transfected with a cDNA for CETP and purified as described by Wang, S. et al. (J. Biol. Chem. 267, 17487-17490 (1992)). To measure CETP activity, [^3H]CE-labeled-HDL, LDL, CETP and assay buffer (50 mM tris(hydroxymethyl)aminomethane, pH 7.4; 150 mM sodium chloride; 2 mM ethylenediamine-tetraacetic acid (EDTA); 1% bovine serum albumin) were incubated in a final volume of 200 μL, for 2 hours at 37° C. in 96 well plates. Inhibitors were included in the assay by diluting from a 10 mM DMSO stock solution into 16% (v/v) aqueous DMSO so that the final concentration of inhibitor was 800 μM. The inhibitors were then diluted 1:1 with CETP in assay buffer, and then 25 μL of that solution was mixed with 175 μL of lipoprotein pool for assay. Following incubation, LDL was differentially precipitated by the addition of 50 μL of 1% (w/v) dextran sulfate/0.5 M magnesium chloride, mixed by vortex, and incubated at room temperature for 10 minutes. A potion of the solution (200 μL) was transferred to a filter plate (Millipore). After filtration, the radioactivity present in the precipitated LDL was measured by liquid scintillation counting. […] The rate of [^3H]CE transfer using this assay was linear with respect to time and CETP concentration, up to 25-30% of [^3H]CE transferred.
This value was defined as the IC50.

`OCC(c1ccc(C(F)(F)F)cc1)N(Cc1cccc(OC(F)(F)F)c1)c1cccc(Oc2ccccc2)c1` (stereo not shown) [1B, 2-[(3-phenoxy)phenyl[[(3-trifluoromethoxy)phenyl]methyl]amino]-2-[(4-trifluoromethyl)phenyl]ethanol]: the half-maximal inhibitory concentration (IC50) was 6 µM.
Next, `OC(CN(Cc1cccc(OC(F)(F)F)c1)c1cccc(Oc2ccccc2)c1)c1ccc(C(F)(F)F)cc1` (stereo not shown) [EX-1A, 2-[(3-phenoxy)phenyl[[(3-trifluoromethoxy)phenyl]methyl]amino]-1-[(4-trifluoromethyl)phenyl]ethanol]: 18 µM; `CCCC(O)CN(Cc1cccc(OC(F)(F)F)c1)c1cccc(Oc2ccccc2)c1` (stereo not shown) [Example 2]: 3.6 µM; `OC(CN(Cc1cccc(OC(F)(F)F)c1)c1cccc(Oc2ccccc2)c1)c1ccccc1` (stereo not shown) [Example 3]: 44 µM.
The figure for `C=CC(O)CN(Cc1cccc(OC(F)(F)F)c1)c1cccc(Oc2ccccc2)c1` (stereo not shown) [Example 4] is greater than 50 µM; for `OC(Cc1ccccc1)CN(Cc1cccc(OC(F)(F)F)c1)c1cccc(Oc2ccccc2)c1` (stereo not shown) [Example 5] it is greater than 50 µM.
In the case of `OC(COc1ccc(Cl)cc1)CN(Cc1cccc(OC(F)(F)F)c1)c1cccc(Oc2ccccc2)c1` (stereo not shown) [Example 6], the IC50 was greater than 100 µM.
The figure for `OC(COCc1ccco1)CN(Cc1cccc(OC(F)(F)F)c1)c1cccc(Oc2ccccc2)c1` (stereo not shown) [Example 7] is greater than 100 µM; for `OCC(c1cccc(C(F)(F)F)c1)N(Cc1cccc(OC(F)(F)F)c1)c1cccc(Oc2ccccc2)c1` (stereo not shown) [Example 8] it is 7 µM; for `COC(=O)C(C)(O)CN(Cc1cccc(OC(F)(F)F)c1)c1cccc(Oc2ccccc2)c1` (stereo not shown) [Example 9] it is 24 µM.
Next, `OC(CN(Cc1cccc(OC(F)(F)C(F)F)c1)c1cccc(Oc2ccccc2)c1)c1ccccc1` (stereo not shown) [Example 10]: 57 µM.
The figure for `OC1CCCCC1N(Cc1cccc(OC(F)(F)F)c1)c1cccc(Oc2ccccc2)c1` (stereo not shown) [Example 26] is 15 µM.
As to `FC(F)(F)Oc1cccc(CN(CCc2ccc(C(F)(F)F)cc2)c2cccc(Oc3ccccc3)c2)c1` [Example 27, N-[(3-phenoxy)phenyl]-N-[[(3-trifluoromethoxy)phenyl]methyl]-2-[(4-trifluoromethyl)phenyl]ethanamine], the half-inhibitory concentration (IC50) was greater than 100 µM.
The figure for `FC(CN(Cc1cccc(OC(F)(F)F)c1)c1cccc(Oc2ccccc2)c1)c1ccc(C(F)(F)F)cc1` (stereo not shown) [Example 28, N-[(3-phenoxy)phenyl]-N-[[(3-trifluoromethoxy)phenyl]methyl]-2-[(4-trifluoromethyl)phenyl]-2-fluoro-ethanamine] is greater than 100 µM.
Next, `CCCC(O)CN(Cc1cccc(OC(F)(F)F)c1)Cc1cccc(OC(F)(F)F)c1` (stereo not shown) [compound 11]: 30 µM; `OC(Cc1ccccc1)CN(Cc1cccc(OC(F)(F)F)c1)Cc1cccc(OC(F)(F)F)c1` (stereo not shown) [compound 12]: 14 µM; `COCC(O)CN(Cc1cccc(OC(F)(F)F)c1)Cc1cccc(OC(F)(F)F)c1` (stereo not shown) [compound 13]: 80 µM.
Next, `CC(O)CN(Cc1cccc(OC(F)(F)F)c1)Cc1cccc(OC(F)(F)F)c1` (stereo not shown) [compound 14]: 90 µM.
Turning to `CCOC(=O)C(O)CN(Cc1cccc(OC(F)(F)F)c1)Cc1cccc(OC(F)(F)F)c1` (stereo not shown) [compound 15], the IC50 was greater than 100 µM.
Next, `OCC(O)CN(Cc1cccc(OC(F)(F)F)c1)Cc1cccc(OC(F)(F)F)c1` (stereo not shown) [compound 16]: greater than 100 µM; `OC(COc1ccccc1)CN(Cc1cccc(OC(F)(F)F)c1)Cc1cccc(OC(F)(F)F)c1` (stereo not shown) [compound 17]: greater than 100 µM.
The figure for `OC(COc1ccc(Cl)cc1)CN(Cc1cccc(OC(F)(F)F)c1)Cc1cccc(OC(F)(F)F)c1` (stereo not shown) [compound 18] is greater than 100 µM; for `OC(CN1CCOCC1)CN(Cc1cccc(OC(F)(F)F)c1)Cc1cccc(OC(F)(F)F)c1` (stereo not shown) [compound 19] it is greater than 100 µM; for `O=C1c2ccccc2C(=O)N1CC(O)CN(Cc1cccc(OC(F)(F)F)c1)Cc1cccc(OC(F)(F)F)c1` (stereo not shown) [compound 20] it is greater than 100 µM.
Regarding `COc1ccc(OCC(O)CN(Cc2cccc(OC(F)(F)F)c2)Cc2cccc(OC(F)(F)F)c2)cc1` (stereo not shown) [compound 21], the IC50 is greater than 100 µM.
